The target of data set [1] is human carbonic anhydrase CA I (Homo sapiens, UniProt P00915). Description: hCA inhibition, stopped-flow CO2 hydration method, CA I.
Method: (§15) In vitro assessment of all targeted pyrazolobenzothiazine scaffolds for human carbonic anhydrase (hCA) inhibition was performed adopting a stopped-flow CO2 hydration method. The enzyme inhibition assays were carried out for four types of human CA isoforms: CA I, CA II, CA IX, and XII. […] Reason for the selection of these CA isoforms was to develop a comparative relationship for inhibition selectivity between CAs (IX, XII) attributed to tumour/cancer and other CAs (I, II). […] Analyses were carried out in-house using recombinant enzymes as described.
Data set [2] deals with Escherichia coli (ATCC 8739). The data set can be described thus: Microbroth single-dose antimicrobial assay, E. coli. The note with it: ATCC8739, single dose 125 μg/mL, E. coli ATCC 8739, value (SD). In kind it is cell-based. The protocol: (§1) Microbroth single dose antimicrobial assays were performed against different pathogens including susceptible Staphylococcus aureus (ATCC 25923), Escherichia coli (ATCC 8739), and Candida albicans (ATCC 90027). Pathogens were treated with 125 μg/mL of tested compounds in duplicate.
(§2) The antimicrobial evaluation of the targeted compounds was carried out against five different pathogens including Staphylococcus aureus (susceptible, ATCC 25923; methicillin-resistant, ATCC BAA-41; multidrug-resistant, ATCC BAA-44), Escherichia coli ATCC 8739, and Candida albicans ATCC 90027. Reference antibiotics and final concentrations used as positive controls in these experiments were kanamycin (susceptible S. aureus, 50 μg), vancomycin (methicillin and multidrug-resistant S. aureus, 25 μg), ampicillin (E. coli, 50 μg), and amphotericin B (C. albicans, 25 μg). The final concentration of the tested compounds was 125 μg/mL for microbroth single-dose assays. Dimethyl sulfoxide was used at a final concentration of 0.1% as negative control. […] American type culture collection (ATCC, Manassas, VA, USA) has provided all microbial strains used in above experiments.
(§3) Antimicrobial Single-dose assay for compounds 7(a-n) against
(§4) S. aureus E. coli C. albicans
(§5) Figure S43: Graph showing results of antimicrobial single-dose microbroth assays of compounds 7a–n, dose of tested compounds = 125 μg/mL, control antibiotic s used: kanamycin = 50 μg/mL (Staphylococcus aureus ATCC 25923), ampicillin = 50 μg/mL (Escherichia coli ATCC 8739), and amphotericin B = 25 μg/mL (Candida albicans ATCC 90027). Dimethylsulfoxide ( DMSO) was used as the negative control at 1.25% […]
(§6) Table S1: Results of single-dose antimicrobial and cytotoxic assays for compounds 7a–n; dosage of tested compounds = 125 μg/mL; antibiotic control dosage (kanamycin = 50 μg/mL (Staphylococcus aureus ATCC 25923), ampicillin = 50 μg/mL (Escherichia coli ATCC 8739), and amphotericin B = 25 μg/mL (Candida albicans ATCC 90027).
(§7) For cytotoxic assays, dosage of tested compounds = 10 μM; dosage of mensacarcin […]
(§8) Percent survival / % Cell viability
(§9) Samples S. aureus E.coli (SD) C. albicans (SD) HCT-116 […]
In general terms: Dilution methods test growth across graded concentrations, often in twofold steps.

For data set [3], the system named is human colon cancer cell line HCT-116 (ATCC CCL-247). Description: Single-dose MTT cell viability assay. In kind it is cell-based. The conditions noted are these: 10 μM. The protocol: (§10) Single-dose MTT assays were performed for compounds 7a–n against the human colon cancer mammalian cell line (HCT-116, ATCC CCL-247) for evaluating their inhibition of mammalian cell metabolism. Solutions of the tested compounds were prepared in DMSO and cancer cells were treated with 10 μM doses of compounds using the apoptosis inducing standard mensacarcin (10 μM) as a positive control.
(§11) Single-dose MTT assays were performed for compounds 7a–n with the human colon cancer mammalian cell line (HCT-116, ATCC CCL-247) for evaluating the compounds’ inhibitory effects on cell viability. Stock solutions of compounds were prepared in DMSO and cancer cells were treated with 10 μM doses of each compound and mensacarcin (10 μM) as a positive control. MTT in 1X PBS was added for a final concentration of 0.5 mg/mL 48 hours post compound addition to each well. Post incubation at 37 °C was carried out for 2 h. After the removal of the growth media, purple formazan metabolic product was dissolved in DMSO. A Biotek Synergy reader (96-well plate) was used to take absorbance of all samples at 550 nm. Cell viability was calculated as the ability of the metabolically active cells to reduce tetrazolium salt MTT [3-(4,5-dimethylthiazolyl-2)-2,5-diphenyltetrazolium bromide]. Control metabolic activity shown by cells treated with 0.1% DMSO was set to 100% cell growth. […]
as §7, §8, §9
(§12) HCT-116 (Human Colorn cancer cell line) Single -dose assay for […]
(§13) Figure S44: Graph showing cell viability of compounds 7a–n against human colon carcinoma cell line (HCT-116, ATCC CCL-247), dose of tested compounds = 10 μM, dose of positive control (mensacarcin) = 10 μM.
(In general: Tetrazolium dyes change colour on reduction, which living cells bring about.)

Data set [4] in a line: Single-dose MTT cell viability assay. The class given is cell-based, human. The note with it: human, HCT-116 cells (ATCC CCL-247), 48 h, 0.1% DMSO control = 100%, value (SD). The protocol: as §10, §11, §7, §8, §9, §12, §13
In data set [5] the test system is methicillin-resistant S. aureus (ATCC BAA-41). The data set can be described thus: Microbroth dilution assay (MIC90), methicillin-resistant S. aureus. In kind it is cell-based, Staphylococcus aureus. The note with it: methicillin-resistant S. aureus ATCC BAA-41, 90% growth inhibition. The protocol:
(§14) Microbroth dilution assays were performed for the determination of MIC (minimum inhibitory concentration, MIC90) values for compounds 7b and 7h against three different strains of Staphylococcus aureus: susceptible (ATCC 25923), methicillin-resistant (ATCC BAA-41), and multidrug-resistant (ATCC BAA-44).
as §2

The target in data set [6] is human carbonic anhydrase CA IX (Homo sapiens, UniProt Q16790). The data set can be described thus: hCA inhibition, stopped-flow CO2 hydration method, CA IX. The note with it: Ki for targeted CAs, IX, mean from three assays, errors ±5–10%.
Method: as §15
The test system of data set [7] is Staphylococcus aureus (ATCC 25923). Description: Microbroth single-dose antimicrobial assay, susceptible S. aureus. The note with it: single dose 125 μg/mL. In kind it is cell-based. The protocol: as §1, §2, §3, §4, §5, §6, §7, §8, §9
The test system of data set [8] is multidrug-resistant S. aureus (ATCC BAA-44). The data set can be described thus: Microbroth dilution assay (MIC90), multidrug-resistant S. aureus. The class given is cell-based, Staphylococcus aureus. The note with it: multidrug-resistant S. aureus ATCC BAA-44, 90% growth inhibition. The protocol: as §14, §2
Data set [9] has as its target human carbonic anhydrase CA XII (Homo sapiens, UniProt O43570). The data set can be described thus: hCA inhibition, stopped-flow CO2 hydration method, CA XII. The note with it: Ki for targeted CAs, XII, mean from three assays, errors ±5–10%.
Method: as §15
Data set [10] relates to susceptible S. aureus (ATCC 25923). Description: Microbroth dilution assay (MIC90), susceptible S. aureus. In kind it is cell-based, Staphylococcus aureus. The protocol:
as §14, §2

Data set [11] concerns the target human carbonic anhydrase CA II (Homo sapiens, UniProt P00918). The data set can be described thus: hCA inhibition, stopped-flow CO2 hydration method, CA II. The conditions noted are these: Ki for targeted CAs, II, mean from three assays, errors ±5–10%.
Method: as §15
For data set [12], the system named is Candida albicans (ATCC 90027). Description: Microbroth single-dose antimicrobial assay, C. albicans. The class given is cell-based. The conditions noted are these: ATCC90027, single dose 125 μg/mL, C. albicans ATCC 90027, value (SD). The protocol: as §1, §2, §3, §4, §5, §6, §7, §8, §9

As usually defined, the Ki is a dissociation constant, usually derived from enzyme kinetics or from competition with a known ligand. Lower therefore signals tighter binding. What is called viability is the share of living cells, or the viability signal relative to a control. As a reminder, the MIC90 is the lowest concentration that inhibits either 90% of growth or 90% of the strains tested, depending on the study.

Converted amounts (≈) assume the structure as drawn.

Chain of human carbonic anhydrase CA I (P00915 whole entry): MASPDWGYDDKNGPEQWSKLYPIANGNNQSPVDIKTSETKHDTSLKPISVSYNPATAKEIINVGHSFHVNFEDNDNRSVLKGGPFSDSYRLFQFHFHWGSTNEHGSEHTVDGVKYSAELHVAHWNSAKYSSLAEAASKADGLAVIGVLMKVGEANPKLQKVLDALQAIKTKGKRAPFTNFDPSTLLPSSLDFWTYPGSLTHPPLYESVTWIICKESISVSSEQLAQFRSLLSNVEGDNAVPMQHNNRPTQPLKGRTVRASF
Chain of human carbonic anhydrase CA XII (O43570 25-354): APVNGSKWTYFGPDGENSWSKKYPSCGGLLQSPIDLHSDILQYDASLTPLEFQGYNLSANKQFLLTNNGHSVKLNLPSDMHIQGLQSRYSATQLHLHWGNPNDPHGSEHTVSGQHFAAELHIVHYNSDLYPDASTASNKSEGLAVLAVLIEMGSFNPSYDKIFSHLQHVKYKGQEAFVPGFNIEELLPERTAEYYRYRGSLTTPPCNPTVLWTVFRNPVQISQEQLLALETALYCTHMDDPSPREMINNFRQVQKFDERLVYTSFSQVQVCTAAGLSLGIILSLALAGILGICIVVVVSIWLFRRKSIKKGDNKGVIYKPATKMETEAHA

As for `CN1c2c(O)nn(CC(=O)Nc3ccc(Br)cc3)c2-c2ccccc2S1(=O)=O` [Compound 7h], the Ki in [1] was more than 100 µM; in data set [6] it was 90.8 µM; in [9] it was 91.7 µM; in [11], 95.2 µM. In addition, the percent survival at 125 µg/mL in [2] was more than 100%; in [12] it was 65.1%. For the same compound, the “effect on HCT-116 cell viability (in words)” value in data set [3] is on record as “no significant decrease in mammalian cell viability”. Besides, in [4], the viability at 48 h, 10 µM was more than 100%. For the same compound, the MIC90 came to 8 mg/L (≈ 17.3 µM) in data set [5] (Staphylococcus aureus, ATCC BAA-41 / MRSA, read-out: MIC90 MRSA); 8 mg/L (≈ 17.3 µM) in data set [8] (Staphylococcus aureus, ATCCBAA44, read-out: MIC90 MDRSA); 8 mg/L (≈ 17.3 µM) in [10] (Staphylococcus aureus, ATCC25923, 90% growth inhibition). Moreover, the “MIC90 MRSA” value in data set [5] turned out to be 8 mg/L (≈ 17.3 µM). Further, the percent survival of S. aureus at 125 µg/mL in [7] (Staphylococcus aureus, ATCC25923, S. aureus ATCC 25923, value (SD)) turned out to be 16.7%. Also, in [7] (duplicate), the “antibacterial activity against susceptible S. aureus (in words)” value is reported as “significant antibacterial activity”. In data set [8], the “MIC90 MDRSA” value is 8 mg/L (≈ 17.3 µM). Moreover, the “MIC90 SA” value in data set [10] (90% growth inhibition) worked out at 8 mg/L (≈ 17.3 µM).

The values above are taken from PMC11833175, “Synthesis, characterization, antimicrobial, cytotoxic and carbonic anhydrase inhibition activities of multifunctional pyrazolo-1,2-benzothiazine acetamides” (Beilstein Journal of Organic Chemistry, 2025).
